The record followed here is patent US4223137A, “Carbostyril derivatives and process for preparing the same” (Otsuka Pharmaceutical Co., Ltd., priority 1976, dated 1980).

In general, LD50 refers to the dose expected to kill half of the subjects tested. As usually defined, the ED50 is the midpoint of the dose-response relation.

The test system of one series is β2-receptor. Put plainly: Separation of bronchial resistance effect from heart rate effect (β2 selectivity), anesthetized dogs. The class given is in vivo, dog (male hybrid adult dogs). The conditions noted are these: i.v. On the procedure: (§1) The stimulating activity of the compounds of this invention on β-adrenoreceptor was determined as follows: Male hydrid adult dogs, weighing 10 to 15 kg, were anesthesized with sodium pentobartital administered intravenously at a level of 30 mg/kg of body weight. Each of the anesthesized dogs was secured on its back and a cannula was inserted into the trachea. Artificial respiration was conducted using a device according to the Konzett-Rossler method (Konzett H. & Rossler R., "Versuchsanordnug zu Untersuchungen an der Bronchial Moskolatur", Arch. Exp. Path., Pharmack, 195, 71-74, 27-40 (1940). The volume of the air which overflowed at the time of inhalation was measured through a pneumotachometer to determine the bronchial resistance and the values obtained were recorded on a polygraph.
(§2) In the above procedure, histamine was employed as a bronchoconstrictor at a dosage level of 10 μg/kg of body weight, and an aqueous solution containing each of the test compounds and controls shown in Table 1 below was then administered to each of the anesthesized dogs through the femoral vein at the various dosage levels as shown in Table 1 below 1 minute before the administration of the histamine. Sodium pentobartital was infused during the procedure at a dosage level of 4 mg/kg of body weight/hr using an automatic injector in order to inhibit spontaneous respiration and to maintain the anesthetic condition constant over the test period.
(§3) ED50 values were calculated using a Dose Response curve. At the same time the pulse was measured through a transducer and the value was recorded on a polygraph.

For series [1], the system named is β-adrenoreceptor. Nature of the series: Persistence (duration) of inhibition of histamine-induced bronchospasm, anesthetized dogs. It counts as in vivo, dog. The conditions noted are these: FIGURE, i.v. 1 μg/kg, versus Compound (2). On the procedure: as §1, with “[…],” for “Pharmack,”, “polygraph. […] Sodium pentobartital was infused during the procedure at a dosage level of 4 mg/kg of body weight/hr using an automatic injector in order to inhibit spontaneous respiration and to maintain the anesthetic condition constant over the test period. The persistance time was determined by administering to a subject a test compound in such a dose that a histamine-induced bronchospasm is inhibited completely (100%), in the same manner as described above and observing the persistance of the activity of the test compound with the lapse of time.” for “polygraph.”

For series [2], the system named is β-adrenoreceptor. Nature of the series: Heart rate (pulse) increase, i.v., anesthetized dogs. The conditions noted are these: for Heart Rate (HR) ED25 beats/min, Compound: pulse increase, i.v., anesthetized dogs; for Heart Rate (HR) Relative Potency: ED25 compared to isoproterenol as standard compound. It counts as in vivo, dog (male hybrid adult dogs). On the procedure:
(§4) The stimulating activity of the compounds of this invention on β-adrenoreceptor was determined as follows: Male hydrid adult dogs, weighing 10 to 15 kg, were anesthesized with sodium pentobartital administered intravenously at a level of 30 mg/kg of body weight. Each of the anesthesized dogs was secured on its back and a cannula was inserted into the trachea.
as §2, §3

Series [3] can be described thus: Acute toxicity by intravenous administration. The conditions noted are these: rat, in vivo, i.v., male rats (dd strain, 18 to 22 g), fasted 12 hours, read-out: LD50 (50% lethal dose). The protocol:
Further, the acute toxicity by intravenous administration was determined with respect to the test compounds shown in Table 2 below using 5 to 6 groups each containing 10 male rats (dd strain; body weight: 18 to 22 g) which had been fasted for 12 hours prior to the test. The LD50 (50% lethal dose) results are as follows.

Series [4] addresses T1, β-adrenoreceptor (Canis lupus familiaris, UniProt P54833).
T1 construct: from tissue; host or cells: airways of anesthetized dogs, in vivo
Nature of the series: Inhibition of histamine-induced bronchial resistance increase (bronchospasm), i.v., Konzett-Rossler method, anesthetized dogs. The class given is in vivo, dog (male hybrid adult dogs). The conditions noted are these: for Bronchial Resistance (BR) Relative Potency: ED50 compared to isoproterenol as standard compound; for ED50: dog, iv, read-out: Bronchial Resistance (BR) ED50, Compound. On the procedure: as §4, §2, §3

The mark [5] stands for this setting: i.v. 1 minute before histamine 10 μg/kg, anesthetized dogs.

Where a name gives a salt, the structure may show the parent alone. Read-outs that look alike come from different tables or passages of the source.

T1 sequence (P54833 whole entry): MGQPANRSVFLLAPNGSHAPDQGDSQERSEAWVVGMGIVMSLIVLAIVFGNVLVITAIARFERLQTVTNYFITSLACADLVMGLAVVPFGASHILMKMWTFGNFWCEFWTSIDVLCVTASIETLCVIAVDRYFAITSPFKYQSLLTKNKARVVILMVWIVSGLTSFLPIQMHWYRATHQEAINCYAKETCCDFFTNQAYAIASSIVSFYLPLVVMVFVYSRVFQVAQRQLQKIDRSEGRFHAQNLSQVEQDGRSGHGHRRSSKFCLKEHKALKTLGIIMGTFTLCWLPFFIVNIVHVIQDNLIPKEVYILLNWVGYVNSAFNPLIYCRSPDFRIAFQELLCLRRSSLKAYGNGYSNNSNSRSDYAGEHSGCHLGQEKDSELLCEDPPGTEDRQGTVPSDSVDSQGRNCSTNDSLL

Turning to `CCC(NC(C)C)C(OC(C)=O)c1ccc(OC(C)=O)c2[nH]c(=O)ccc12.Cl` (centres unmarked) [(3), 8-acetoxy-5-(1-acetoxy-2-isopropylaminobutyl)carbostyril hydrochloride], the “Separation Ratio HR(Relative Potency)/BR(Relative Potency)” value with β2-receptor was 11.0. Also, in the series with β-adrenoreceptor [1], the “duration of β-stimulation activity on histamine-induced bronchospasm” value (“duration of β-stimulation activity” for short) was “exhibit a long-lasting β-stimulation activity on histamine-induced bronchospasm as compared with that of the comparative compound”. In the series on β-adrenoreceptor [2], the “Heart Rate (HR) ED25 beats/min, Compound” value is 4.5 µg/kg and the “Heart Rate (HR) Relative Potency” value was determined as 64.4. The LD50 in series [3] turned out to be 112000 µg/kg. On β-adrenoreceptor [4], the “Bronchial Resistance (BR) Relative Potency” value was found to be 5.85 and the ED50 was found to be 0.82 µg/kg.
In the case of `CCNC(CC)C(O)c1ccc(OC(C)=O)c2[nH]c(=O)ccc12.Cl` (centres unmarked) [(4), 8-acetoxy-5-(1-hydroxy-2-ethylaminobutyl)carbostyril hydrochloride], the “Separation Ratio HR(Relative Potency)/BR(Relative Potency)” value in the series on β2-receptor amounted to 11.8. The “duration of β-stimulation activity” value in the series on β-adrenoreceptor [1] is given as “exhibit a long-lasting β-stimulation activity on histamine-induced bronchospasm as compared with that of the comparative compound”. In the series with β-adrenoreceptor [2], the “Heart Rate (HR) ED25 beats/min, Compound” value turned out to be 3.6 µg/kg and the “Heart Rate (HR) Relative Potency” value was determined as 45.0. The LD50 in series [3] amounted to 105000 µg/kg. In addition, at β-adrenoreceptor [4], the “Bronchial Resistance (BR) Relative Potency” value worked out at 3.81 and the ED50 is 0.61 µg/kg.
Regarding `CCC(NC(C)C)C(OC(=O)c1ccc(C)cc1)c1ccc(OC(=O)c2ccc(C)cc2)c2c1CCC(=O)N2` (centres unmarked) [(12), 8-(4-methylbenzoyloxy)-5-[(1-(4-methylbenzoyloxy)-2-isopropylaminobutyl]-3,4-dihydrocarbostyril hydrochloride], the “Separation Ratio HR(Relative Potency)/BR(Relative Potency)” value in the series with β2-receptor was 10.3. Also, in the series on β-adrenoreceptor [2], the “Heart Rate (HR) ED25 beats/min, Compound” value is 8.3 µg/kg and the “Heart Rate (HR) Relative Potency” value is listed as 75.5. The LD50 in series [3] was determined as 153000 µg/kg. Besides, the “Bronchial Resistance (BR) Relative Potency” value at β-adrenoreceptor [4] was found to be 7.30. The ED50 on β-adrenoreceptor [4] (setting [5]) came out at 0.73 µg/kg.
For `COc1ccc(CCNCC(OC(=O)C2CC2)c2ccc(OC(=O)C3CC3)c3[nH]c(=O)ccc23)cc1OC` (centres unmarked) [(8), 8-cyclopropylcarbonyloxy)-5-[1-cyclopropylcarbonyloxy-2-(3,4-dimethoxyphenethylamino)ethyl]carbostyril hydrochloride], in the series with β2-receptor, the “Separation Ratio HR(Relative Potency)/BR(Relative Potency)” value is 14.8. Besides, in the series on β-adrenoreceptor [2], the “Heart Rate (HR) ED25 beats/min, Compound” value was 4.81 µg/kg and the “Heart Rate (HR) Relative Potency” value is given as 68.7. The LD50 in series [3] amounted to 123000 µg/kg. For the same compound, at β-adrenoreceptor [4], the “Bronchial Resistance (BR) Relative Potency” value is 4.64. In addition, on β-adrenoreceptor [4] (setting [5]), the ED50 amounted to 0.51 µg/kg.
Regarding `CCC(NC(C)C)C(O)c1ccc(OC(=O)C(C)C)c2nc(OC(=O)C(C)C)ccc12.Cl` (centres unmarked) [(10), 2,8-diisobutyryloxy-5-(1-hydroxy-2-isopropylaminobutyl)quinoline hydrochloride], in the series on β2-receptor, the “Separation Ratio HR(Relative Potency)/BR(Relative Potency)” value turned out to be 9.5. In addition, in the series with β-adrenoreceptor [1], the “duration of β-stimulation activity” value was “exhibit a long-lasting β-stimulation activity on histamine-induced bronchospasm as compared with that of the comparative compound”. In the series with β-adrenoreceptor [2], the “Heart Rate (HR) ED25 beats/min, Compound” value was determined as 5.6 µg/kg and the “Heart Rate (HR) Relative Potency” value is reported as 56.4. For the same compound, on β-adrenoreceptor [4], the “Bronchial Resistance (BR) Relative Potency” value stood at 5.94 and the ED50 is 0.95 µg/kg.
On to `CCC(NC(C)C)C(O)c1ccc(OC(=O)CC(C)(C)C)c2[nH]c(=O)ccc12` (centres unmarked) [(6)], for which, in the series with β2-receptor, the “Separation Ratio HR(Relative Potency)/BR(Relative Potency)” value is 13.1. For the same compound, in the series with β-adrenoreceptor [2], the “Heart Rate (HR) ED25 beats/min, Compound” value was found to be 3.2 µg/kg and the “Heart Rate (HR) Relative Potency” value was 46.1. Further, in series [3], the LD50 was 107000 µg/kg. Besides, the “Bronchial Resistance (BR) Relative Potency” value at β-adrenoreceptor [4] is recorded as 3.52. Further, the ED50 at β-adrenoreceptor [4] (setting [5]) is 0.42 µg/kg.
